For 79 molecules, RP-LC retention time results are on record in the METLIN SMRT retention time set (Domingo-Almenara et al. 2019).

The nature of the data set: gradient 5% acetonitrile 3 min, to 50% in 2 min, to 85% in 15 min, held 3 min, 100 µL/min. As to conditions: column: Zorbax Extend-C18 2.1 x 50 mm; eluents: water / acetonitrile, 0.1% formic acid. The method, boiled down:
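Data were gathered over 3 months by HPLC coupled to a quadrupole time-of-flight mass spectrometer, operated in positive and negative ionization mode. Mixtures of ~100 pure standards ran on a Zorbax Extend-C18 column (2.1 × 50 mm, 1.8 μm) at 100 μL/min, with water and acetonitrile each containing 0.1% formic acid and dead and dwell volumes of 40 μL and 900 μL. Retention time was read from adduct peaks picked by computer and checked manually.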
Molecule `CC(Oc1cccc(Cl)c1)c1nc(-c2ccc3c(c2)ncn3CCC(=O)N2CCCC2)no1` (centres undefined) yielded an RP-LC retention time of 838 s.

`COc1ccc(-c2cn3c(CC(=O)Nc4ccc(Cl)cc4)csc3n2)cc1OC` displayed an RP-LC retention time of 799 s.

The molecule `CCc1noc(-c2ccnc(-n3cnc(C(=O)NCc4ccccc4C)c3)c2)n1` gave an RP-LC retention time of 939 s.

The molecule `CCN(CC)C(=O)c1c2c(cn(-c3ccc(C)cc3)c1=O)C(=O)CC(C)(C)C2` had an RP-LC retention time of 799 s.

Turning to `CCN(CC)S(=O)(=O)c1cc(-c2nnc(-c3ccccc3)o2)ccc1OC`, the RP-LC retention time is 977 s.

`CC(=O)N1CCc2sc(C(=O)N3CCN(c4cccc(Cl)c4)CC3)cc2C1` displayed an RP-LC retention time of 840 s.

In the case of `O=c1n(Cc2ccccc2)nc2c(S(=O)(=O)N3CCc4ccccc4C3)cccn12`, the RP-LC retention time turned out to be 942 s.

Regarding `Cc1ccc(-c2nnc(-c3nc(N4CCN(c5ccccn5)CC4)c4ccccc4n3)o2)cc1`, the RP-LC retention time came to 676 s.

For `COc1ccc2c(c1)C1(CCN(S(=O)(=O)c3cccs3)C1)C(=O)N2C` (centres undefined), the RP-LC retention time was found to be 871 s.

As to `Cc1onc(-c2cccc(Br)c2)c1C(=O)NCCCN1CCOCC1`, the RP-LC retention time was 629 s.

Turning to `CO[C@@H](Cc1ccc(OCCc2nc(-c3ccccc3)oc2C)c2ccsc12)C(=O)O`, the RP-LC retention time was 1160 s.

For `CC1(C(=O)NCc2ccc3c(c2)OCO3)CCN(C(=O)/C=C/c2ccccc2)CC1`, the RP-LC retention time stood at 817 s.

The molecule `CCOc1ccc(NC(=O)N2CCC3(CC2)NC(=O)c2ccc(Cl)cc2N3C)cc1` gave an RP-LC retention time of 904 s.

The molecule `O=C1CC(C(F)(F)F)c2c(c(C(=O)O)cn2-c2cccc(Br)c2)N1` (centres undefined) gave an RP-LC retention time of 795 s.

As to `CCCC(O)c1nc2ccccc2n1CC(=O)N(c1ccccc1)C(C)C` (centres undefined), the RP-LC retention time worked out at 734 s.

With `CCOC(=O)C1CCC(CNC(=O)N2CCN(Cc3nc4ccccc4o3)CC2)CC1` (centres undefined), the RP-LC retention time amounted to 676 s.

Consider `CCCn1cc(CCNC(=O)Nc2cccc(Br)c2)c2cccnc21`, for which the RP-LC retention time was determined as 865 s.

Molecule `CC(=O)Nc1onc(C)c1-c1ccc(C)c(S(=O)(=O)N2CCN(c3ccccn3)CC2)c1` came in with an RP-LC retention time of 628 s.

With `COc1cccc(Cn2nc3n(CCC(=O)NC4CCCC4)c(=O)c4ccccc4n3c2=O)c1`, the RP-LC retention time is 873 s.

`Cn1cc2c3c(cccc31)CN(C(=O)c1cc(F)cc(F)c1)CC2` showed an RP-LC retention time of 955 s.

`O=C(Nc1cccc(F)c1)N1CCN(c2cnn3c(C4CC4)nnc3c2)CC1` had an RP-LC retention time of 663 s.

`CN(C)CCNC(=O)C1CCN(c2nc3ccc(-c4ccsc4)nc3s2)CC1` showed an RP-LC retention time of 645 s.

In the case of `Cc1cn(C)c(CC(=O)NCCN2CCOCC2)c1C(=O)O`, the RP-LC retention time was found to be 572 s.

In turn, `Cc1[nH]c(C(=O)Nc2ccccc2F)c(C)c1S(=O)(=O)N1CCCCC1` showed an RP-LC retention time of 933 s.

Molecule `CC(C)n1c(N2CCN(C(=O)c3cc4ccccc4[nH]3)CC2)cc(=O)n(C(C)C)c1=O` came in with an RP-LC retention time of 915 s.

The molecule `COc1ccc(CNS(=O)(=O)c2cc(-c3cc(C(F)(F)F)on3)sc2C)cc1` came in with an RP-LC retention time of 848 s.

`CCCNC(=O)c1ccc2nc(CCc3ccc(NC(=O)CCC)cc3)[nH]c2c1` yielded an RP-LC retention time of 617 s.

`COc1cc(NC(=O)c2c(S(=O)(=O)Nc3ccc(Cl)cc3)n[nH]c2C)cc(OC)c1`: the RP-LC retention time turned out to be 886 s.

In the case of `Cn1c(=O)sc2cc(S(=O)(=O)N3CCC(C(=O)NCCN4CCCCCC4)CC3)ccc21`, the RP-LC retention time worked out at 623 s.

`CN1CCc2[nH]cnc2C12CCN(C(=O)Nc1ccccc1C(F)(F)F)C2` (centres undefined) registered an RP-LC retention time of 569 s.

`O=[N+]([O-])c1ccc2nc(N3CCNCC3)ccc2c1`: the RP-LC retention time stood at 641 s.

As to `Cn1ncc2c3ccccc3n(CC(=O)NCCCN3CCCC3=O)c2c1=O`, the RP-LC retention time was 615 s.

On to `CC(C)c1cc(C(=O)Nc2cccc(C(F)(F)F)c2)nn1C1CCS(=O)(=O)C1` (centres undefined), for which the RP-LC retention time turned out to be 1000 s.

Consider `Cc1cc(C)cc(C(=O)NC2(c3nc(-c4ccccc4)no3)CCCCC2)c1`, for which the RP-LC retention time stood at 1280 s.

`C/C=C1\NC(=O)[C@H]2CSSCC/C=C/[C@H](CC(=O)N[C@H](C(C)C)C(=O)N2)OC(=O)C(C(C)C)NC1=O` (some centres undefined) returned an RP-LC retention time of 808 s.

Molecule `Cc1cc(C)cc(-n2ccn(Cc3nc(-c4cccc(F)c4)no3)c(=O)c2=O)c1` displayed an RP-LC retention time of 901 s.

The molecule `C#CCOCC(O)CN1CCN(C(c2ccccc2)c2ccccc2)CC1` (centres undefined) showed an RP-LC retention time of 606 s.

Molecule `CCC(=O)N1c2ccc(S(=O)(=O)N3CCCCC3)cc2CC1C(=O)NC1CCCC1` (centres undefined) gave an RP-LC retention time of 883 s.

On to `COc1ccc(C(O)CN2CCN(C3CCCCC3)CC2)cc1OC` (centres undefined), for which the RP-LC retention time is 541 s.

`Cc1c(C(=O)N2CCSCC2)cnn1-c1cc(-c2nc(C3CC3)no2)ccn1`: the RP-LC retention time is 949 s.

Consider `CNC(=O)N1Cc2ccccc2OC2(CCN(C(C)C)CC2)C1`, for which the RP-LC retention time was 592 s.

`Cc1ccc(-c2nnc(-c3nn(C)c4c3CN(S(=O)(=O)c3ccccc3F)CC4)o2)cc1`: the RP-LC retention time was 970 s.

In the case of `Cc1nc(-c2cccc(NC(=O)c3ncccn3)c2)cs1`, the RP-LC retention time amounted to 665 s.

For `Cc1nn(C)c(C)c1CNC(=O)C1CCN(c2nnc3ccccn23)CC1`, the RP-LC retention time worked out at 515 s.

Take `c1cc(-c2noc(-c3ccoc3)n2)cc(-c2ccn[nH]2)c1`: the RP-LC retention time was found to be 839 s.

Regarding `O=C(Nc1ccc(N2CCN(C3CCCC3)C2=O)nc1)c1ccc(Cl)cc1`, the RP-LC retention time stood at 937 s.

Turning to `Cc1ccc(CNC(=O)c2cc3n(n2)CC(C)(C(=O)NCc2ccccc2)N(C)C3=O)cc1` (centres undefined), the RP-LC retention time amounted to 766 s.

For `CC(NC(=O)CN1c2ccc(F)cc2-c2ccccc2S1(=O)=O)c1ccccc1` (centres undefined), the RP-LC retention time is 937 s.

Molecule `O=C(Nc1cccc2c1CCCC2)C1CCN(S(=O)(=O)c2cccc3nonc23)CC1` had an RP-LC retention time of 990 s.

In turn, `Cc1ccc(C(=O)NCc2ccc3c(c2)CCCN3C(=O)C2CCC2)c(C)c1` returned an RP-LC retention time of 941 s.

`O=C(Cc1ccsc1)N1CCCn2cc(-c3ccccc3F)nc21` yielded an RP-LC retention time of 784 s.

As for `CCN1c2ccc(C)cc2C(=O)NC12CCN(C(=O)c1ccc(C(F)(F)F)cc1)CC2`, the RP-LC retention time amounted to 788 s.

In turn, `COC(=O)N1CCN(CCNC(=O)Cc2cccc3ccccc23)CC1` came in with an RP-LC retention time of 574 s.

Molecule `CCOC(=O)c1ccc(NC(=O)Cn2c(C)cc(=O)c3cc(Br)ccc32)cc1` had an RP-LC retention time of 623 s.

Molecule `CCc1c(C2CCN(C(=O)c3ccnn3CC)CC2)noc1N` returned an RP-LC retention time of 652 s.

Molecule `N#Cc1ccc(C(=O)NC2CCN(c3ccc(F)cc3)C2=O)cc1` (centres undefined) had an RP-LC retention time of 754 s.

In the case of `Cn1cc(-c2nc(C(=O)NCc3ccccc3F)cs2)c2cccnc21`, the RP-LC retention time was found to be 908 s.

Molecule `Cc1nc([C@@H]2CN(C(=O)c3sccc3C)C[C@H]2C(N)=O)n[nH]1` displayed an RP-LC retention time of 552 s.

Regarding `C[C@H]1CCC/C=C/C2C[C@H](O)C[C@H]2[C@H](O)/C=C/C(=O)O1` (some centres undefined), the RP-LC retention time was determined as 732 s.

For the molecule `COc1ccc(C(C)NC(=O)C2CCN(c3nccnc3Sc3ccc(C)cc3)CC2)cc1` (centres undefined), the RP-LC retention time came out at 1060 s.

The molecule `Cc1cccc(N2CCN(c3ccc4cc(S(=O)(=O)N5CCCC5)ccc4n3)CC2C)c1` (centres undefined) yielded an RP-LC retention time of 962 s.

As for `CN(C)c1cccc(-c2nc(-c3cn(-c4cccc(F)c4)nn3)no2)c1`, the RP-LC retention time worked out at 1110 s.

Consider `O=C(Cc1ccc(Cl)cc1)NCCOc1ccccc1`, for which the RP-LC retention time turned out to be 844 s.

`COc1ccc(C(=O)CSc2nnc(-c3cc(C)oc3C)o2)cc1OC` registered an RP-LC retention time of 911 s.

Consider `CCOc1ccc(CN(C(=O)Cc2coc3ccc(CC)cc23)C2CCS(=O)(=O)C2)cc1` (centres undefined), for which the RP-LC retention time came to 1050 s.

Consider `O=C(NCc1cccs1)c1ccc(-n2cccn2)nn1`, for which the RP-LC retention time is 737 s.

The molecule `CC(C)C(=O)Nc1ccc(-n2cnc(C(=O)NC3CCCCC3)c2)nc1` showed an RP-LC retention time of 765 s.

On to `CCn1cc(-c2ccc(F)cc2)cc1C(=O)N1CCOCC1`, for which the RP-LC retention time was 869 s.

For `Cc1nn(-c2ccc(F)cc2)c2nc(N3CCCC(C(=O)NCc4cccc(F)c4)C3)sc12` (centres undefined), the RP-LC retention time was 1130 s.

`Clc1ccccc1-c1nnc(CN2CCN(c3ccccn3)CC2)o1` came in with an RP-LC retention time of 602 s.

The molecule `CNC(=O)N1CCC(C2CCN(C(=O)C3CC=CC3)C2)CC1` (centres undefined) yielded an RP-LC retention time of 646 s.

Turning to `COc1ccc(N2CCN(C(=O)C3CCN(c4nc(NC(C)=O)ns4)CC3)CC2)cc1`, the RP-LC retention time stood at 618 s.

For the molecule `CC(C)OCCCNC(=O)CCc1nnc2c3cc(-c4ccc(F)cc4)nn3ccn12`, the RP-LC retention time was determined as 710 s.

`O=C(CC(c1ccccc1)c1ccccc1)Nc1cc(N2CCOCC2)ncn1` displayed an RP-LC retention time of 752 s.

Turning to `Cc1cccc(NC(=O)C2CCCN2S(=O)(=O)c2cc3c(cc2C)NC(=O)CO3)c1` (centres undefined), the RP-LC retention time stood at 763 s.

Molecule `Fc1ccc(CNc2cc(-n3cccn3)ncn2)cc1` yielded an RP-LC retention time of 830 s.

On to `CSc1ccc(CNC(=O)C2CCCN(c3ncc(-c4ccccc4)cn3)C2)cc1` (centres undefined), for which the RP-LC retention time was 1060 s.

`CCOCCCNC(=O)CN1c2ccc(CC)cc2-c2ccccc2S1(=O)=O` yielded an RP-LC retention time of 926 s.

On to `O=C(Nc1ccc2c(c1)OCCO2)c1ccc(-n2cc(CNC(=O)C3CC3)cn2)cc1`, for which the RP-LC retention time was determined as 720 s.
